# Reference: USRE39591E1, “6-O-substituted ketolides having antibacterial activity” (Abbott Laboratories, priority 1996, dated 2007)
# Tested on: up to 32 different microorganisms
# Experiment: in vitro antibacterial activity (MIC), agar dilution on Brain Heart Infusion (BHI) agar with Steers replicator
# Assay type: cell-based
# Conditions: unit assumed
# Experimental: Representative compounds of the present invention were assayed in vitro for antibacterial activity as follows: Twelve petri dishes containing successive aqueous dilutions of the test compound mixed with 10 mL of sterilized Brain Heart Infusion (BHI) agar (Difco 0148-01-5) were prepared. Each plate was inoculated with 1:100 (or 1:10 for slow-growing strains, such as Micrococcus and Streptococcus) dilutions of up to 32 different microorganisms, using a Steers replicator block. The inoculated plates were incubated at 35°-37° C. for 20 to 24 hours. In addition, a control plate, using BHI agar containing no test compound, was prepared and incubated at the beginning and end of each test.
# An additional plate containing a compound having known susceptibility patterns for the organisms being tested and belonging to the same antibiotic class as the test compound was also prepared and incubated as a further control, as well as to provide test-to-test comparability. Erythromycin A was used for this purpose.
# After incubation, each plate was visually inspected. The minimum inhibitory concentration (MIC) was defined as the lowest concentration of drug yielding no growth, a slight haze, or sparsely isolated colonies on the inoculum spot as compared to the growth control.
# [1] = Candida albicans CCH 442 (code TT)
# [2] = Enterococcus faecism ATCC 8043 (code II)
# [3] = Escherichia coli DC-2 (code SS)
# [4] = Escherichia coli JUHL (code QQ)
# [5] = Micrococcus luteus ATCC 4698 (code PP)
# [6] = Micrococcus luteus ATCC 9341 (code OO)
# [7] = Mycobacterium smegmatis ATCC 114 (code UU)
# [8] = Nocardia Asteroides ATCC9970 (code VV)
# [9] = Staphylococcus aureus 1775 (code GG)
# [10] = Staphylococcus aureus A-5278 (code CC)
# [11] = Staphylococcus aureus ATCC 6538P (code AA)
# [12] = Staphylococcus aureus CMX 553 (code FF)
# [13] = Staphylococcus aureus CMX 642A (code DD)
# [14] = Staphylococcus aureus NCTC10649M (code EE)
# [15] = Staphylococcus epidermidis 3519 (code HH)
# [16] = Streptococcus agalactiae CMX 508 (code KK)
# [17] = Streptococcus bovis A-5169 (code JJ)
# [18] = Streptococcus pyogenes 930 (code MM)
# [19] = Streptococcus pyogenes EES61 (code LL)
# [20] = Streptococcus pyogenes PIU 2548 (code NN)
# [21] = Staphylococcus aureus A5177 (code BB)
compound,measurement,setting,value
"CCC1OC(=O)C(C)C(=O)C(C)C(OC2OC(C)CC(N(C)C)C2O)C(C)(OCC=Cc2cnc3ccc([N+](=O)[O-])cc3c2)CC(C)C(=O)C(C)C2NC(=O)OC12C (stereo not drawn) [Example 195, R is —CH2CH═CH-(6-nitroquinolyl)]",MIC,[1],> 100 µg/mL
same,MIC,[2],0.05 µg/mL
same,MIC,[3],50 µg/mL
same,MIC,[4],50 µg/mL
same,MIC,Escherichia coli SS (code RR),0.2 µg/mL
same,MIC,[5],0.1 µg/mL
same,MIC,[6],0.01 µg/mL
same,MIC,[7],0.39 µg/mL
same,MIC,[8],0.05 µg/mL
same,MIC,[9],> 100 µg/mL
same,MIC,[10],> 100 µg/mL
same,MIC,[11],0.05 µg/mL
same,MIC,[12],0.05 µg/mL
same,MIC,[13],0.05 µg/mL
same,MIC,[14],0.05 µg/mL
same,MIC,[15],0.05 µg/mL
same,MIC,[16],0.05 µg/mL
same,MIC,[17],0.01 µg/mL
same,MIC,[18],1.56 µg/mL
same,MIC,[19],0.02 µg/mL
same,MIC,[20],0.1 µg/mL
"CCC1OC(=O)C(C)C(=O)C(C)C(OC2OC(C)CC(N(C)C)C2O)C(C)(OCC=Cc2cccc3ncccc23)CC(C)C(=O)C(C)C2NC(=O)OC12C (stereo not drawn) [Example 196, R is —CH2CH═CH-(5-quinolyl)]",MIC,[1],> 100 µg/mL
same,MIC,[2],0.05 µg/mL
same,MIC,[3],> 100 µg/mL
same,MIC,[4],> 100 µg/mL
same,MIC,Escherichia coli SS (code RR),0.39 µg/mL
same,MIC,[5],0.1 µg/mL
same,MIC,[6],0.01 µg/mL
same,MIC,[7],0.2 µg/mL
same,MIC,[8],0.1 µg/mL
same,MIC,[9],> 100 µg/mL
same,MIC,[10],> 100 µg/mL
same,MIC,[11],0.1 µg/mL
same,MIC,[12],0.1 µg/mL
same,MIC,[13],0.1 µg/mL
same,MIC,[14],0.1 µg/mL
same,MIC,[15],0.2 µg/mL
same,MIC,[16],≤ 0.005 µg/mL
same,MIC,[17],≤ 0.005 µg/mL
same,MIC,[18],> 100 µg/mL
same,MIC,[19],≤ 0.005 µg/mL
same,MIC,[20],0.2 µg/mL
"CCC1OC(=O)C(C)C(=O)C(C)C(OC2OC(C)CC(N(C)C)C2O)C(C)(OCC=Cc2ccc3nc(C)ccc3c2)CC(C)C(=O)C(C)C2NC(=O)OC12C (stereo not drawn) [Example 197, R is —CH2CH═CH-(2-methyl-6-quinolyl)]",MIC,[1],> 100 µg/mL
same,MIC,[2],0.05 µg/mL
same,MIC,[3],100 µg/mL
same,MIC,[4],100 µg/mL
same,MIC,Escherichia coli SS (code RR),0.2 µg/mL
same,MIC,[5],0.2 µg/mL
same,MIC,[6],0.02 µg/mL
same,MIC,[7],1.56 µg/mL
same,MIC,[8],0.1 µg/mL
same,MIC,[9],> 100 µg/mL
same,MIC,[21],0.1 µg/mL
same,MIC,[10],> 100 µg/mL
same,MIC,[11],0.1 µg/mL
same,MIC,[12],0.2 µg/mL
same,MIC,[13],0.1 µg/mL
same,MIC,[14],0.2 µg/mL
same,MIC,[15],0.1 µg/mL
same,MIC,[16],≤ 0.005 µg/mL
same,MIC,[17],≤ 0.005 µg/mL
same,MIC,[18],100 µg/mL
same,MIC,[19],≤ 0.005 µg/mL
same,MIC,[20],0.1 µg/mL
"CCC1OC(=O)C(C)C(=O)C(C)C(OC2OC(C)CC(N(C)C)C2OC(C)=O)C(C)(OCC=Cc2cnc3ccccc3c2)CC(C)C(=O)C(C)C2NC(=O)OC12C (stereo not drawn) [Example 198, Compound of Formula (III): L is CO, T is NH, R^c is acetyl; R is —CH2CH═CH-(3-quinolyl)]",MIC,[1],> 100 µg/mL
same,MIC,[2],0.02 µg/mL
same,MIC,[3],50 µg/mL
same,MIC,[4],50 µg/mL
same,MIC,Escherichia coli SS (code RR),0.1 µg/mL
same,MIC,[5],0.1 µg/mL
same,MIC,[6],≤ 0.005 µg/mL
same,MIC,[7],0.39 µg/mL
same,MIC,[8],0.02 µg/mL
same,MIC,[9],> 100 µg/mL
same,MIC,[21],0.05 µg/mL
same,MIC,[10],> 100 µg/mL
same,MIC,[11],0.05 µg/mL
same,MIC,[12],0.02 µg/mL
same,MIC,[13],0.05 µg/mL
same,MIC,[14],0.05 µg/mL
same,MIC,[15],0.1 µg/mL
same,MIC,[16],≤ 0.005 µg/mL
same,MIC,[17],≤ 0.005 µg/mL
same,MIC,[18],0.39 µg/mL
same,MIC,[19],≤ 0.005 µg/mL
same,MIC,[20],0.1 µg/mL
"CCC1OC(=O)C(C)C(=O)C(C)C(OC2OC(C)CC(N(C)C)C2O)C(C)(OCC=Cc2cc3nccnc3cc2[N+](=O)[O-])CC(C)C(=O)C(C)C2NC(=O)OC12C (stereo not drawn) [Example 200, R is —CH2CH═CH-(7-nitro-6-quinoxalinyl)]",MIC,organism code AA,0.1 µg/mL
same,MIC,organism code BB,0.1 µg/mL
same,MIC,organism code CC,> 100 µg/mL
same,MIC,organism code DD,0.1 µg/mL
same,MIC,organism code EE,0.1 µg/mL
same,MIC,organism code FF,0.1 µg/mL
same,MIC,organism code GG,> 100 µg/mL
same,MIC,organism code HH,0.1 µg/mL
same,MIC,organism code II,0.02 µg/mL
same,MIC,organism code JJ,0.01 µg/mL
same,MIC,organism code KK,0.02 µg/mL
same,MIC,organism code MM,50 µg/mL
same,MIC,organism code NN,0.2 µg/mL
same,MIC,organism code OO,0.01 µg/mL
same,MIC,organism code PP,0.2 µg/mL
same,MIC,organism code QQ,50 µg/mL
same,MIC,organism code RR,0.39 µg/mL
same,MIC,organism code SS,12.5 µg/mL
same,MIC,organism code TT,> 100 µg/mL
same,MIC,organism code UU,0.78 µg/mL
same,MIC,organism code VV,0.1 µg/mL
same,MIC,organism code WW,2 µg/mL
same,MIC,organism code XX,≤ 0.004 µg/mL
same,MIC,organism code YY,≤ 0.004 µg/mL
same,MIC,organism code ZZ,> 128 µg/mL
same,MIC,organism code ZZA,0.25 µg/mL
"CCC1OC(=O)C(C)C(=O)C(C)C(OC2OC(C)CC(N(C)C)C2O)C(C)(OCC=Cc2cnc3ccc(N)cc3c2)CC(C)C(=O)C(C)C2NC(=O)OC12C (stereo not drawn) [Example 201, R is —CH2CH═CH-(6-amino-3-quinolyl)]",MIC,organism code AA,0.1 µg/mL
same,MIC,organism code BB,0.1 µg/mL
same,MIC,organism code CC,> 100 µg/mL
same,MIC,organism code DD,0.1 µg/mL
same,MIC,organism code EE,0.1 µg/mL
same,MIC,organism code FF,0.1 µg/mL
same,MIC,organism code GG,> 100 µg/mL
same,MIC,organism code HH,0.01 µg/mL
same,MIC,organism code II,0.01 µg/mL
same,MIC,organism code JJ,0.01 µg/mL
same,MIC,organism code KK,0.01 µg/mL
same,MIC,organism code LL,0.01 µg/mL
same,MIC,organism code MM,1.56 µg/mL
same,MIC,organism code NN,0.2 µg/mL
same,MIC,organism code OO,0.05 µg/mL
same,MIC,organism code PP,0.1 µg/mL
same,MIC,organism code QQ,50 µg/mL
same,MIC,organism code RR,0.1 µg/mL
same,MIC,organism code SS,50 µg/mL
same,MIC,organism code TT,> 100 µg/mL
same,MIC,organism code UU,6.2 µg/mL
same,MIC,organism code VV,0.2 µg/mL
same,MIC,organism code WW,2 µg/mL
same,MIC,organism code XX,0.03 µg/mL
same,MIC,organism code YY,0.03 µg/mL
same,MIC,organism code ZZ,16 µg/mL
same,MIC,organism code ZZA,1 µg/mL
"CCC1OC(=O)C(C)C(=O)C(C)C(OC2OC(C)CC(N(C)C)C2O)C(C)(OCC=Cc2cnc3ncccc3c2)CC(C)C(=O)C(C)C2NC(=O)OC12C (stereo not drawn) [Example 202, R is —CH2CH═CH-(1,8-naphthyridin-3-yl)]",MIC,organism code XX,0.03 µg/mL
same,MIC,organism code YY,0.03 µg/mL
same,MIC,organism code ZZ,32 µg/mL
same,MIC,organism code ZZA,2 µg/mL
CCC1OC(=O)C(C)C(=O)C(C)C(OC2OC(C)CC(N(C)C)C2O)C(C)(OCC=Cc2cnc3ccc(NC(C)=O)cc3c2)CC(C)C(=O)C(C)C2NC(=O)OC12C (stereo not drawn) [Example 203],MIC,organism code AA,0.2 µg/mL
same,MIC,organism code BB,0.39 µg/mL
same,MIC,organism code CC,> 100 µg/mL
same,MIC,organism code DD,0.2 µg/mL
same,MIC,organism code EE,0.2 µg/mL
same,MIC,organism code FF,0.39 µg/mL
same,MIC,organism code GG,> 100 µg/mL
same,MIC,organism code HH,0.2 µg/mL
same,MIC,organism code II,0.2 µg/mL
same,MIC,organism code JJ,≤ 0.005 µg/mL
same,MIC,organism code KK,0.01 µg/mL
same,MIC,organism code LL,0.01 µg/mL
same,MIC,organism code MM,1.56 µg/mL
same,MIC,organism code NN,0.39 µg/mL
same,MIC,organism code OO,0.02 µg/mL
same,MIC,organism code PP,0.39 µg/mL
same,MIC,organism code QQ,100 µg/mL
same,MIC,organism code RR,0.39 µg/mL
same,MIC,organism code SS,100 µg/mL
same,MIC,organism code TT,> 100 µg/mL
same,MIC,organism code UU,6.2 µg/mL
same,MIC,organism code VV,0.39 µg/mL
same,MIC,organism code WW,4 µg/mL
same,MIC,organism code XX,0.03 µg/mL
same,MIC,organism code YY,0.03 µg/mL
same,MIC,organism code ZZ,16 µg/mL
same,MIC,organism code ZZA,2 µg/mL
"CCC1OC(=O)C(C)C(=O)C(C)C(OC2OC(C)CC(N(C)C)C2O)C(C)(OCC=Cc2ccc3[nH]c4ccccc4c3c2)CC(C)C(=O)C(C)C2NC(=O)OC12C (stereo not drawn) [Example 204, R is —CH2CH═CH-(3-carbazolyl)]",MIC,organism code AA,0.1 µg/mL
same,MIC,organism code BB,0.1 µg/mL
same,MIC,organism code CC,> 100 µg/mL
same,MIC,organism code DD,0.1 µg/mL
same,MIC,organism code EE,0.1 µg/mL
same,MIC,organism code FF,0.1 µg/mL
same,MIC,organism code GG,> 100 µg/mL
same,MIC,organism code HH,0.1 µg/mL
same,MIC,organism code II,0.05 µg/mL
same,MIC,organism code JJ,0.01 µg/mL
same,MIC,organism code KK,0.01 µg/mL
same,MIC,organism code LL,0.01 µg/mL
same,MIC,organism code MM,3.1 µg/mL
same,MIC,organism code NN,0.2 µg/mL
same,MIC,organism code OO,0.02 µg/mL
same,MIC,organism code PP,0.1 µg/mL
same,MIC,organism code QQ,> 100 µg/mL
same,MIC,organism code RR,0.78 µg/mL
same,MIC,organism code SS,> 100 µg/mL
same,MIC,organism code TT,> 100 µg/mL
same,MIC,organism code UU,0.78 µg/mL
same,MIC,organism code VV,0.1 µg/mL
same,MIC,organism code WW,4 µg/mL
same,MIC,organism code XX,0.06 µg/mL
same,MIC,organism code YY,0.06 µg/mL
same,MIC,organism code ZZ,8 µg/mL
same,MIC,organism code ZZA,0.5 µg/mL
"CCC1OC(=O)C(C)C(=O)C(C)C(OC2OC(C)CC(N(C)C)C2O)C(C)(OCC=Cc2ccc3[nH]cnc3c2)CC(C)C(=O)C(C)C2NC(=O)OC12C (stereo not drawn) [Example 205, R is —CH2CH═CH-(5-benzimidazolyl)]",MIC,organism code XX,0.03 µg/mL
same,MIC,organism code YY,0.06 µg/mL
same,MIC,organism code ZZ,> 64 µg/mL
same,MIC,organism code ZZA,4 µg/mL
